Measured values as given in patent US6906205B2, “Spiro and dispiro 1,2,4-trioxolane antimalarials” (Medicines for Malaria Venture MMV, priority 2002, dated 2005).
Converted amounts (≈) assume the structure as drawn.

Key:
[1] = test system: P. falciparum NF54 strain (sensitive to standard antimalarials); experiment: semiautomated microdilution assay, [3H]-hypoxanthine incorporation, NF54 strain; type: cell-based, Plasmodium falciparum; conditions: NF54 strain, 72 h incubation
Outline: (§1)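 Logit regression analysis was used to estimate IC50 values. Parasites were intraerythrocytic forms from asynchronous stock cultures, and compounds were tested by semiautomated microdilution.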

[2] = test system: P. falciparum K1 strain (Thailand resistant to chloroquine); experiment: semiautomated microdilution assay, [3H]-hypoxanthine incorporation, K1 strain; type: cell-based, Plasmodium falciparum; conditions: K1 strain, 72 h incubation
Outline: as §1

[3] = test system: ANKA strain of P. berghei; experiment: single dose STI in vivo screen in infected mice; set-up: species or system Plasmodium berghei; conditions: for Activity (%) po / Activity (%) sc / Activity (%) SSVpo: percent reduction in parasitemia day 3 post-infection, mice; for Activity (%) po / Survival (days) po: single 10 mg/kg po in 3% ethanol and 7% Tween 80; for Activity (%) sc / Survival (days) sc: single 10 mg/kg sc in 3% ethanol and 7% Tween 80; for Activity (%) SSVpo: single po dose in standard suspending vehicle (SSV); for Survival (days) po / Survival (days) sc / Survival (days) SSVpo: untreated control 5.6 ± 0.3; for Survival (days) SSVpo: single po dose in SSV
Outline: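 Groups of 3-5 Moro SPF or NMRI mice infected with the ANKA strain of P. berghei received a single dose of trioxolane on day one post-infection. The compound was given in 3% ethanol and 7% Tween 80 or in SSV (0.5% w/v CMC, 0.5% v/v benzyl alcohol, 0.4% v/v Tween 80, 0.9% w/v sodium chloride in water). Antimalarial activity was scored as percent reduction in parasitemia on day three and as survival time versus untreated controls. Survival to day 30 counted as cure.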

Row | Compound | IC50 (ng/ml) NF54 [1] | IC50 (ng/ml) K1 [2] | Activity (%) po [3] [%] | Activity (%) sc [3] [%] | Activity (%) SSVpo [3] [%] | Survival (days) po [3] [days] | Survival (days) sc [3] [days] | Survival (days) SSVpo [3] [days] | Activity (%) po ([3]; 10 mg/kg) [%] | Activity (%) sc ([3]; 10 mg/kg) [%] | Survival (days) po ([3]; 10 mg/kg) [days] | Survival (days) sc ([3]; 10 mg/kg) [days]
1 | CC(C)(C)NC(=O)N1CCC2(CC1)OOC1(O2)C2CC3CC(C2)CC1C3 (stereo not shown) [OZ143] | 1.8 ng/mL (≈ 0.00494 µM) | 0.98 ng/mL (≈ 0.00269 µM) | 48 | 99.85 | 44 | 6.7 | 9.7 | 6.7 | – | – | – | –
2 | S=C(Nc1ccccc1)N1CCC2(CC1)OOC1(O2)C2CC3CC(C2)CC1C3 (stereo not shown) [OZ144] | 2.1 ng/mL (≈ 0.00524 µM) | 1.4 ng/mL (≈ 0.0035 µM) | 99.45 | 99.94 | 92 | 7.3 | 16.7 | 7.3 | – | – | – | –
3 | O=C(OC1CCC2(CC1)OOC1(O2)C2CC3CC(C2)CC1C3)n1ccnc1 (stereo not shown) [OZ147] | 1.8 ng/mL (≈ 0.00481 µM) | 1.1 ng/mL (≈ 0.00294 µM) | 85 | 99.89 | 71 | 8.0 | 19.7 | 8.0 | – | – | – | –
4 | O=C1OC2(CCC3(CC2)OOC2(O3)C3CC4CC(C3)CC2C4)c2ccccc21 (stereo not shown) [OZ149] | 8.8 ng/mL (≈ 0.023 µM) | 8.0 ng/mL (≈ 0.0209 µM) | 64 | 87 | 3 | 7.7 | 14.3 | 6.0 | – | – | – | –
5 | O=C(NCCO)[C@H]1CC[C@]2(CC1)OOC1(O2)C2CC3CC(C2)CC1C3 (stereo partly shown) [OZ155] | > 10 ng/mL | 12 ng/mL (≈ 0.0341 µM) | 53 | 73 | 53 | 6.3 | 8.3 | 7.0 | – | – | – | –
6 | C(CNC1CCC2(CC1)OOC1(O2)C2CC3CC(C2)CC1C3)CN1CCOCC1 (stereo not shown) [OZ161] | 0.50 ng/mL (≈ 0.00123 µM) | 0.40 ng/mL (≈ 0.000984 µM) | 59 | 99.96 | 46 | 7.0 | 12.7 | 6.7 | – | – | – | –
7 | O=C(O)c1ccc([C@H]2CC[C@]3(CC2)OOC2(O3)C3CC4CC(C3)CC2C4)cc1 (stereo partly shown) [OZ165] | > 10 ng/mL | 39 ng/mL (≈ 0.101 µM) | 18 | 9 | 3 | 6.3 | 5.7 | 6.0 | – | – | – | –
8 | CCOC(=O)c1ccc(OC[C@H]2CC[C@]3(CC2)OOC2(O3)C3CC4CC(C3)CC2C4)cc1 (stereo partly shown) [OZ166] | > 10 ng/mL | 28 ng/mL (≈ 0.0633 µM) | 11 | 4 | 0 | 6.7 | 5.7 | 6.3 | – | – | – | –
9 | O=C1c2ccccc2C(=O)N1C[C@H]1CC[C@@]2(CC1)OOC1(O2)C2CC3CC(C2)CC1C3 (stereo partly shown) [OZ167] | > 10 ng/mL | 6.7 ng/mL (≈ 0.0158 µM) | 0 | 97 | 6 | 6.0 | 7.3 | 6.0 | – | – | – | –
10 | CC1(C)CC(NC2CCC3(CC2)OOC2(O3)C3CC4CC(C3)CC2C4)CC(C)(C)N1 (stereo not shown) [OZ171] | 1.4 ng/mL (≈ 0.00334 µM) | 1.3 ng/mL (≈ 0.00311 µM) | 98 | 99.94 | 85 | 9.0 | 9.7 | 7.0 | – | – | – | –
11 | N=C(N)NN=C1CCC2(CC1)OOC1(O2)C2CC3CC(C2)CC1C3 (stereo not shown) [OZ172] | 5.0 ng/mL (≈ 0.015 µM) | 3.5 ng/mL (≈ 0.0105 µM) | 68 | 100 | 82 | 8.0 | 10.3 | 10.3 | – | – | – | –
12 | COCC(=O)N(Cc1ccccc1)C1CCC2(CC1)OOC1(O2)C2CC3CC(C2)CC1C3 (stereo not shown) [OZ173] | 32 ng/mL (≈ 0.0725 µM) | 58 ng/mL (≈ 0.131 µM) | 15 | 80 | 0 | 7.0 | 9.7 | 6.7 | – | – | – | –
13 | COCC(=O)N(C1CCCCC1)C1CCC2(CC1)OOC1(O2)C2CC3CC(C2)CC1C3 (stereo not shown) [OZ174] | 34 ng/mL (≈ 0.0784 µM) | 27 ng/mL (≈ 0.0623 µM) | 0 | 90 | 15 | 6.7 | 10.3 | 7.3 | – | – | – | –
14 | O=C(O)c1ccc(OC[C@H]2CC[C@]3(CC2)OOC2(O3)C3CC4CC(C3)CC2C4)cc1 (stereo partly shown) [OZ176] | 35 ng/mL (≈ 0.0844 µM) | 25 ng/mL (≈ 0.0603 µM) | 11 | 24 | 18 | 7.0 | 7.0 | 7.7 | – | – | – | –
15 | CS(=O)(=O)c1ccc([C@H]2CC[C@]3(CC2)OOC2(O3)C3CC4CC(C3)CC2C4)cc1 (stereo partly shown) [OZ178] | 27 ng/mL (≈ 0.0645 µM) | 21 ng/mL (≈ 0.0502 µM) | 32 | 31 | 23 | 7.3 | 10.0 | 7.3 | – | – | – | –
16 | CC1(C)COC(c2ccc([C@H]3CC[C@]4(CC3)OOC3(O4)C4CC5CC(C4)CC3C5)cc2)=N1 (stereo partly shown) [OZ180] | 2.8 ng/mL (≈ 0.0064 µM) | 3.7 ng/mL (≈ 0.00846 µM) | – | – | 97 | – | – | 12.7 | 99.91 | 65 | 13.7 | 10.3
17 | O=C(OCCn1ccnc1)C1CCC2(CC1)OOC1(O2)C2CC3CC(C2)CC1C3 (stereo not shown) [OZ182] | 5.5 ng/mL (≈ 0.0137 µM) | 4.5 ng/mL (≈ 0.0112 µM) | 91 | 95 | 96 | 8.0 | 7.7 | 7.3 | – | – | – | –
18 | O=C(NO)c1ccc([C@H]2CC[C@]3(CC2)OOC2(O3)C3CC4CC(C3)CC2C4)cc1 (stereo partly shown) [OZ183] | 2.1 ng/mL (≈ 0.00526 µM) | 0.80 ng/mL (≈ 0.002 µM) | 65 | 81 | 19 | 6.0 | 8.3 | 6.0 | – | – | – | –
19 | C1CC1CNC1CCC2(CC1)OOC1(O2)C2CC3CC(C2)CC1C3 (stereo not shown) [OZ184] | 1.4 ng/mL (≈ 0.0042 µM) | 1.0 ng/mL (≈ 0.003 µM) | 54 | 97 | 59 | 6.7 | 8.7 | 7.0 | – | – | – | –
20 | C1C2CC3CC1CC(C2)C31OOC2(CCC(NC3CC3)CC2)O1 (stereo not shown) [OZ185] | 1.4 ng/mL (≈ 0.00438 µM) | 1.1 ng/mL (≈ 0.00344 µM) | 86 | 99.96 | 56 | 7.7 | 10.7 | 6.7 | – | – | – | –
21 | COCC(=O)N[C@H]1CC[C@]2(CC1)OOC1(O2)C2CC3CC(C2)CC1C3 (stereo partly shown) [OZ186] | >10/>10 ng/ml | >10/>10 ng/ml | 87 | 67 | 96 | 8.0 | 8.0 | 9.0 | – | – | – | –
22 | CN(C)C(=O)N[C@H]1CC[C@]2(CC1)OOC1(O2)C2CC3CC(C2)CC1C3 (stereo partly shown) [OZ187] | 6.8 ng/mL (≈ 0.0194 µM) | 4.0 ng/mL (≈ 0.0114 µM) | 77 | 77 | 94 | 7.7 | 7.0 | 10.0 | – | – | – | –
23 | CN(C)S(=O)(=O)N1CCC2(CC1)OOC1(O2)C2CC3CC(C2)CC1C3 (stereo not shown) [OZ190] | 1.0 ng/mL (≈ 0.00268 µM) | 0.16 ng/mL (≈ 0.00043 µM) | 98 | 2 | 78 | 8.7 | 5.7 | 7.7 | – | – | – | –
